Measurements from patent publication US6448288B1, “Cannabinoid drugs” (University of Massachusetts, priority 2000, dated 2002).
Where two headings read alike, the source gives them in different places.

Legend:
[1] = Stereospecificity of inhibition of cell proliferation (D-isomer vs L-isomer); type: cell-based; conditions: 25 μM dose, preparation 95% enriched in D-isomer, p<0.001, FIG. 2
[2] = system: PC3; test: MTT assay, human cancer cell line PC3 (prostate); type: cell-based; conditions: PC3, 25 μM, 48 hour MTT assay; for inhibition at 25 µM: Homo sapiens, PC-3, read-out: Percent inhibition of human cancer cell line growth
[3] = system: Calu6; test: MTT assay, human cancer cell line Calu6 (lung); type: cell-based; conditions: Calu6, 25 μM, 48 hour MTT assay; for inhibition at 25 µM: Homo sapiens, Calu-6, read-out: Percent inhibition of human cancer cell line growth
[4] = system: U87; test: MTT assay, human cancer cell line U87 (brain); type: cell-based; conditions: U87, 25 μM, 48 hour MTT assay; for inhibition at 25 µM: Homo sapiens, U-87 MG, read-out: Percent inhibition of human cancer cell line growth
[5] = system: U373; test: MTT assay, human cancer cell line U373 (brain); type: cell-based; conditions: U373, 25 μM, 48 hour MTT assay; for inhibition at 25 µM: Homo sapiens, U373 MG, read-out: Percent inhibition of human cancer cell line growth
[6] = system: A172; test: MTT assay, human cancer cell line A172 (brain); type: cell-based; conditions: A172, 25 μM, 48 hour MTT assay; for inhibition at 25 µM: Homo sapiens, A 172, read-out: Percent inhibition of human cancer cell line growth
[7] = system: HS578T; test: MTT assay, human cancer cell line HS578T (breast); type: cell-based; conditions: 48 hour MTT assay; for inhibition at 25 µM: Homo sapiens, Hs-578T, read-out: Percent inhibition of human cancer cell line growth
[8] = system: C6 cells; test: Cell size and refractile bodies by phase microscopy, C6 cells; type: cell-based; conditions: for cells with one or more refractile bodies / mean number of refractile bodies per cell: C6 cells, after 48 hours
[9] = system: human cell lines derived from a variety of cancer types (brain, breast, bladder, lung, and prostate); test: MTT assay, all ten human cancer cell lines together; type: cell-based; conditions: for inhibition at 25 µM: read-out: inhibition levels (mean±SD)
[10] = system: J82; test: MTT assay, human cancer cell line J82 (bladder); type: cell-based; conditions: J82, 25 μM, 48 hour MTT assay; for inhibition at 25 µM: Homo sapiens, read-out: Percent inhibition of human cancer cell line growth
[11] = system: HT1376; test: MTT assay, human cancer cell line HT1376 (bladder); type: cell-based; conditions: HT1376, 25 μM, 48 hour MTT assay; for inhibition at 25 µM: Homo sapiens, HT-1376, read-out: Percent inhibition of human cancer cell line growth
[12] = system: Du145; test: MTT assay, human cancer cell line Du145 (prostate); type: cell-based; conditions: Du145, 25 μM, 48 hour MTT assay; for inhibition at 25 µM: Homo sapiens, DU-145, read-out: Percent inhibition of human cancer cell line growth
[13] = system: U118; test: MTT assay, human cancer cell line U118 (brain); type: cell-based; conditions: U118, 25 μM, 48 hour MTT assay; for inhibition at 25 µM: Homo sapiens, read-out: Percent inhibition of human cancer cell line growth
[14] = system: C6 glioma cells; test: MTT cell proliferation assay, C6 glioma cells; type: cell-based; conditions: for IC50: MTT assay, FIG. 1, read-out: IC50, inhibition of C6 glioma cells; for inhibition at 25 µM: 48 h, two days, three different experiments
[15] = system: human glioma cell line U87; test: In vivo subcutaneous U87 tumor model in nude mice; parameters: species or system male nu/nu BALBc mice
Procedure: In vivo subcutaneous model. 10^6 U87 cells were injected into the right […] of male nu/nu BALBc mice (Charles River). Two days after inoculation, the mice received either 0.1 mg/kg ajulemic acid in 0.05 ml of safflower oil, or 0.05 ml safflower oil by oral administration. Thereafter, identical dosings were performed on each Monday, Wednesday, and Friday. When visible tumors appeared, the size of the tumors were estimated by averaging the values of two roughly perpendicular diameters measurements. Visible tumors were measured on the days of drug administration.

[16] = system: C6 glioma cells; test: Flow cytometry/cell cycle analysis; type: cell-based; conditions: 25 μM
Procedure: Flow cytometry/cell cycle analysis. For flow cytometry, cells were grown in low serum (0.5%) for two days to synchronize cells in G0/G1, after which they were placed in high serum (10%) for two days. The cells were then labeled with propidium iodide and fixed in 4% paraformaldehyde. Cells were examined using a MoFlo Facs sorter for DNA content.

[17] = system: C6 glioma cells; test: Co-incubation of C6 glioma cells with a specific CB1 antagonist; type: cell-based; conditions: 3.2 μM of a specific CB1 antagonist
[18] = system: C6 glioma cells; test: Electron microscopy and trypan blue exclusion of treated cells; type: cell-based
[19] = system: Protein kinase C (PKC); test: Protein kinase C (PKC) assay in C6 cells; type: cell-based; conditions: 25 μM
Procedure: Protein kinase C (PKC) assay. Cells were transferred into MEM media (0.5% serum) and cultured overnight. The next day, cells were treated with either DMSO or 25 μM ajulemic acid for the specified incubation time, after which the plates were trypsinized. 5×10^6 trypsinized cells were assayed for PKC activity using a kit (Calbiochem, cat. no. 53984).

[20] = system: C6 cells; test: Lipid incorporation assay (14C-arachidonic acid); type: cell-based; conditions: 25 μM, 48 hours
[21] = system: W138 cells; test: Refractile bodies by phase microscopy, W138 cells; type: cell-based; conditions: same length of time and dosage
[22] = system: WI38 cells; test: Cell proliferation assay, normal fibroblast cell line WI38; type: cell-based, rat; conditions: WI-38, 48 h, two days, three different experiments
[23] = two days in 10% serum after synchronization
[24] = two days in 10% serum after synchronization, listed as AJA
[25] = 48 hours, mean over the ten human lines

CCCCCCC(C)(C)c1cc(O)c2c(c1)OC(C)(C)[C@@H]1CC=C(C(=O)O)C[C@@H]21 (single isomer, unassigned) [D-isomer of ajulemic acid]
potency of D-isomer compared to L-isomer of ajulemic acid [1]: marked decrease in the potency

CCCCCc1cc(O)c2c(c1)OC(C)(C)[C@@H]1CC=C(C(=O)O)C[C@@H]21 [THC-11-oic acid]
Percent inhibition of human cancer cell line growth [2]: 1 ± 1%
Percent inhibition of human cancer cell line growth [3]: 19 ± 5%
Percent inhibition of human cancer cell line growth [4]: 5 ± 1%
Percent inhibition of human cancer cell line growth [5]: 0%
Percent inhibition of human cancer cell line growth [6]: 61 ± 2%
Percent inhibition of human cancer cell line growth ([7]; 25 μM): 2 ± 1%
refractile bodies noted (in words) ([8]; C6 glioma cells, 25 μM, 48 hours): no refractile bodies
inhibition levels (mean±SD) ([9]; 25 μM, 48 hours, mean over the ten human lines): 13.1±18.5%
Percent inhibition of human cancer cell line growth [10]: 1 ± 1%
Percent inhibition of human cancer cell line growth [11]: 21 ± 12%
Percent inhibition of human cancer cell line growth [12]: 7 ± 3%
Percent inhibition of human cancer cell line growth [13]: 14 ± 3%
IC50 [14]: 20 µM

CCCCCCC(C)(C)c1cc(O)c2c(c1)OC(C)(C)[C@@H]1CC=C(C(=O)O)C[C@@H]21 [ajulemic acid, 1′,1′-dimethylheptyl-Δ^8-THC-11-oic acid]
inhibition at 25 µM [2]: 69 ± 2%
appearance and size of tumors (in words) ([15]; 0.1 mg/kg thrice weekly, FIG. 4): delay in both the appearance and size of tumors
mean tumor diameter ([15]; day 25 post-inoculation, 0.1 mg/kg oral thrice weekly, n=5, p=0.015): 3.8±8.5 mm
inhibition at 25 µM [3]: 69 ± 3%
inhibition at 25 µM [4]: 54 ± 2%
inhibition at 25 µM [5]: 34 ± 1%
inhibition at 25 µM [6]: 76 ± 1%
rate of apoptosis (sub-G0 cells) ([16]; two days): not increased
G0/G1 (mean % ± SD) [16, 23]: 39.1 ± 1.3 %
G2/M (mean % ± SD) [16, 23]: 32.3%
S (mean % ± SD) [16, 23]: 13.0%
G2/M (mean % ± SD) [16, 24]: 32.3 ± 3.0 %
S (mean % ± SD) [16, 24]: 13.0 ± 2.3 %
inhibition at 25 µM [7]: 60 ± 2%
cells with one or more refractile bodies [8]: 83%
mean number of refractile bodies per cell [8]: 1.78±1.6 per cell
cell size ([8]; after 48 hours of exposure): marked increase in cell size
effectiveness compared to THC ([9]; 25 μM, p<0.05, in six of the ten lines tested): significantly more effective
inhibition at 25 µM [9, 25]: 61.3 ± 12.1%
change of effect on co-incubation with CB1 antagonist (in words) [17]: slight potentiation
recovery upon drug removal [18]: recover quickly upon drug removal
state of treated cells under electron microscopy [18]: neither apoptotic nor necrotic
viability rate by trypan blue exclusion ([18]; treated cells): > 95%
inhibition at 25 µM [10]: 57 ± 3%
inhibition at 25 µM [11]: 60 ± 2%
inhibition at 25 µM [12]: 74 ± 2%
onset of PKC activity increase [19]: increased within five minutes
PKC activity versus control ([19]; for one hour): approximately two-fold above that of control
inhibition at 25 µM [13]: 60 ± 2%
content of tri- and di-glyceride versus controls [20]: over three-fold greater
neutral lipids versus basal levels ([20]; p<0.05 vs control, FIG. 3): significant increase above basal levels
refractile bodies noted (in words) [21]: no refractile bodies
inhibition at 25 µM [22]: 44%
inhibition at 25 µM [14]: 65%
IC50 ([14]; C6 glioma): 55 µM

CCCCCc1cc(O)c2c(c1)OC(C)(C)[C@@H]1CCC(C)=C[C@@H]21 [Δ^9-THC, tetrahydrocannabinol]
inhibition at 25 µM [2]: 72 ± 2%
inhibition at 25 µM [3]: 28 ± 5%
inhibition at 25 µM [4]: 20 ± 5%
inhibition at 25 µM [5]: 0%
inhibition at 25 µM [6]: 42 ± 5%
inhibition at 25 µM [7]: 52 ± 5%
cells with one or more refractile bodies [8]: 27%
mean number of refractile bodies per cell [8]: 0.22±0.5 per cell
inhibition at 25 µM [9, 25]: 39.4 ± 22%
decrease in potency on co-incubation with CB1 antagonist [17]: 150%
inhibition at 25 µM [10]: 63 ± 6%
inhibition at 25 µM [11]: 23 ± 5%
inhibition at 25 µM [12]: 55 ± 7%
inhibition at 25 µM [13]: 39 ± 5%
inhibition at 25 µM [22]: 66%
inhibition at 25 µM [14]: 50%
IC50 ([14]; C6 glioma): 10 µM
